Values after ≈ are worked out from the molar mass of the structure shown. Where two headings read alike, the source gives them in different places.

This is an account of results in patent US10736343B2, “Antimicrobial formulations with pelargonic acid” (ANITOX CORPORATION, priority 2011, dated 2020).

Series [1] concerns Salmonella typhimurium. In words: In vitro test of five formulations against Salmonella typhimurium suspension (Example 3). Type of series: cell-based. The settings on record: pelargonic acid at 10% of formula. Here is the method: Formulations were added to test tubes at concentrations of 0.01% and 0.05%. Solutions were vortexed for 10 seconds to ensure mixing. There were three replicate tubes per treatment.
A suspension of Salmonella typhimurium (10^4 cfu/ml) was added to three test tubes containing the different dilutions of each formulation. The tubes were vortexed, incubated at room temperature for 24 hours and then the solution was plated on SMA (Standard Methods Agar) for 48 hours before counting Salmonella colonies.

The next series relates to parasite C. irritans. The following applies: cited from earlier work.
For series [2], the system named is Salmonella typhimurium. Description: In vitro test of aldehyde / hexenal / pelargonic acid formulations against Salmonella typhimurium suspension (Example 7). It counts as cell-based. The following applies: for ability to replace trans-2-hexenal (in words): At both 5% and 10% pelargonic acid. Here is the method:
Seven aldehydes (butyraldehyde, citral, undecylenic aldehyde, decadienal, cinnamaldehyde, decanal and furfural) were blended with trans-2-hexenal, pelargonic acid, propionic acid and acetic acid as presented in Table 9. A 20% (X−1) and a 25% (F18) hexanal: organic acid product were included as positive controls. […] Solutions were vortexed for 10 seconds to uniformly mix the solution. There were three replicate tubes per treatment. […] The solutions were vortexed, incubated at room temperature for 24 hours and then plated on XLT-4 agar for 48 hours before counting Salmonella colonies.

For series [3], the system named is Salmonella typhimurium (ATCC #14028). Description: Salmonella typhimurium suspension in test tubes with formaldehyde and/or pelargonic acid, plate count (Example 2). It counts as cell-based. Here is the method:
Solutions were vortexed for 10 seconds to ensure mixing. There were three replicate tubes per treatment. A suspension of Salmonella typhimurium (10^3 cfu/ml, ATCC #14028) was added to three test tubes containing each formulation. The solutions were vortexed, incubated at room temperature for 24 hours and plated on SMA (Standard Methods Agar) for 24 hours before counting Salmonella colonies.

The test system of series [4] is Salmonella typhimurium. In words: Residual activity in treated poultry mash feed contaminated after treatment (Example 6). Type of series: cell-based. The following applies: for % Reduction at 13 Days: feed contaminated 13 days post treatment. Here is the method:
Formula 1 from Example 3 composed of 25% trans-2-hexenal, 5% pelargonic acid and 70% aqueous organic acids was compared to trans-2-hexenal for residual activity in feed. Poultry mash feed was treated with 0.1, 0.25, 0.5 or 1.0 kg/ton of hexenal compared to 1 kg/ton of the hexenal: pelargonic acid combination product (0.25 kg/ton of hexenal), At 1, 6 and 13 days post treatment, feed was contaminated with a meat and bone meal inoculum of Salmonella typhimurium at a level of 10^3 cfu/g of feed. After 24 hours, 10 g of subsamples of the untreated and treated feed were suspended in 90 ml Butterfield buffer. Dilutions were plated on XLT-4 agar and incubated at 37° C. for 48 hours before counting Salmonella colonies.

The next series has as its system M. gypseum. The settings on record: cited from earlier work.
In series [5] the test system is Salmonella typhimurium (ATCC #14028). In words: Salmonella typhimurium suspension in test tubes with formaldehyde and/or pelargonic acid, plate count (Example 1). It counts as cell-based. Here is the method:
Solutions were vortexed for 10 seconds to ensure mixing. There were three replicate tubes per treatment. A suspension of Salmonella typhimurium (10^3 cfu/ml, ATCC #14028) was added to three test tubes containing each formulation. The solutions were vortexed, incubated at room temperature for 24 hours plated on SMA (Standard Methods Agar) for 24 hours before counting Salmonella colonies.

The next series relates to yeast (10^5 CFU/bottle). The settings on record: cited from earlier work.
Series [6] deals with A. flavus, P. notatum, A. alternate, F. oxysporum, Cladosporium species, B. subtilis and A. tumerfaciens. The following applies: cited from earlier work.
In series [7] the test system is Helicobacter pylori and S. cholerasuis. The settings on record: cited from earlier work.
The test system of the next series is E. coli. The settings on record: cited from earlier work.
The conditions of series [8]: rat, cited from earlier work.
For series [9] the following is noted: rat, in vivo; cited from earlier work.
The next series has as its system pears and apples. The following applies: 12.5 μL/L, twenty four hours to seven days exposure; cited from earlier work.
The subject of series [10] is apricots, peaches and nectarines. The following applies: cited from earlier work.
In a further series the test system is mold. The settings on record: 0.86 or 1.71 mmol per 1.1 L container for 2 weeks; cited from earlier work.
For a further series, the system named is Penicillium expansum. The settings on record: cited from earlier work.
The next series relates to Phoma mycelium. The following applies: cited from earlier work.
The test system of series [11] is B. cereus, S. typhimurium, V. parahaemolyticus, L. monocytogenes, S. aureus and E. coli O157:H7. The settings on record: cited from earlier work.
The subject of another series is P. syringae pathovars. The following applies: cited from earlier work.
In series [12] the test system is Staphylococcus aureus, E. coli and Salmonella typhimurium. The following applies: cited from earlier work.
[13] abbreviates: formaldehyde 0 %, pelargonic acid 0.00125 %.
Where [14] appears, read: formaldehyde 0 %, pelargonic acid 0.0025 %.
The mark [15] stands for this setting: formaldehyde 0.00312 %, pelargonic acid 0 %.
[16] abbreviates: formaldehyde 0.00625 %, pelargonic acid 0 %.
The mark [17] stands for this setting: formaldehyde 0.0125 %, pelargonic acid 0 %.
Setting [18] is: formaldehyde 0.025 %, pelargonic acid 0 %.
Where [19] appears, read: At 5% pelargonic acid, aldehyde by itself.
[20] abbreviates: At 10% pelargonic acid, 20% aldehyde.

For `CCCCCCCCC(=O)O` [Pelargonic acid, Pelargonic acid (nonanoic acid)], the “effect on efficacy of trans-2-hexenal (in words)” value with Salmonella typhimurium [1] is on record as “increases the efficacy of trans-2-hexenal”. Also, the “control of parasite growth (in words)” value in the series with parasite C. irritans is “effective in controlling the growth”. The “potentiation of aldehyde efficacy (in words)” value with Salmonella typhimurium [2] is “potentiates the efficacy of each individual aldehyde and aldehyde combination”. The Salmonella % reduction in series [3] (setting [13]) stood at 2.1%; in series [3] (setting [14]) it was 8.8%; in series [3] (formaldehyde 0 %, pelargonic acid 0.005 %), 96.5%; in series [3] (formaldehyde 0 %, pelargonic acid 0.01 %), 100%; in series [5] (formaldehyde 0 %, pelargonic acid 0.000312 %), 0%; in series [5] (formaldehyde 0 %, pelargonic acid 0.000625 %) it was 0%. Further, the Salmonella % reduction in [5] (setting [13]) and in series [5] (setting [14]) was 0% each time. In addition, the “effect on bactericidal efficacy of formaldehyde (in words)” value in series [3] (pelargonic acid 0.00125% and 0.0025% mixed with formaldehyde) was “the bactericidal efficacy of formaldehyde was improved”. Besides, the “impact on Salmonella reduction (in words)” value in [3] (pelargonic acid alone at 0.00125% and 0.0025%) is on record as “did not have a significant impact on Salmonella reduction”. Besides, the “effectiveness against Salmonella versus trans-2-hexenal alone (in words)” value in the series with Salmonella typhimurium [4] (addition of pelargonic acid (5%) to trans-2-hexenal) is reported as “better effectiveness against Salmonella than trans-2-hexenal by itself”. For the same compound, the “minimum inhibitory concentration (MIC)” value in the series on M. gypseum (in liquid media) was 50 µg/mL (≈ 316 µM); in the series with M. gypseum (on solid media), 40 µg/mL (≈ 253 µM). Further, the “bactericidal effect (in words)” value in [5] (at the highest dose tested) is “not bactericidal”. For the same compound, the “effect on the effectiveness of formaldehyde (in words)” value in [5] (pelargonic acid at 0.00125 and 0.0025%) was “did appear to increase the effectiveness of formaldehyde”.

Regarding `O=Cc1ccco1` [furfural], the “ability to replace trans-2-hexenal (in words)” value (“ability” for short) in the series with Salmonella typhimurium [2] was “can replace trans-2-hexenal”.

`C=O` [Formaldehyde]: the Salmonella % reduction in series [3] (setting [15]) was determined as 17.7%; in [3] (setting [16]), 41.0%; in series [3] (setting [17]) it was 50.5%; in [3] (setting [18]), 88.3%; in [5] (setting [15]), 17.3%; in series [5] (setting [16]), 39.3%. Besides, the Salmonella % reduction is given as 59.0% in [5] (setting [17]) and 90.8% in [5] (setting [18]).

For the compound `CC(C)=CCCC(C)=CC=O` [citral], the “effectiveness compared with trans-2-hexenal (in words)” value with Salmonella typhimurium [2] (setting [19]) is “not as effective as trans-2-hexenal”; in the series on Salmonella typhimurium [2] (setting [20]) it was “as effective as 20% trans-2-hexenal”. Besides, the “ability” value with Salmonella typhimurium [2] is “can partially replace trans-2-hexenal”. For the same compound, the “concentration equivalent to 25 ppm trans-2-hexenal and thermal treatment” value with yeast (10^5 CFU/bottle) is given as 100-120 ppm.

Consider `CCCCCCCCCC(=O)O` [capric acid], for which the “minimum inhibitory concentration (MIC)” value in the series with M. gypseum (in liquid media) is 75 µg/mL (≈ 435 µM); with M. gypseum (on solid media), 20 µg/mL (≈ 116 µM).

Turning to `CCCC=O` [butyraldehyde], the results for the “effectiveness compared with trans-2-hexenal (in words)” value with Salmonella typhimurium [2] (setting [19]) and in the series on Salmonella typhimurium [2] (setting [20]) were “not as effective as trans-2-hexenal” and “as effective as 20% trans-2-hexenal”, respectively. Moreover, the “ability” value in the series with Salmonella typhimurium [2] was “can partially replace trans-2-hexenal”.

Turning to `CCCCCCCCCC=O` [decanal], the “ability” value with Salmonella typhimurium [2] is given as “can replace trans-2-hexenal”.

Consider `CCC/C=C/C=O` [trans-2-hexenal], for which the “concentration that completely inhibited the growth” value in [6] is 8 ng/L air. The minimum biocidal activity in [7] was 800 µg/mL. Moreover, the minimum inhibitory activity in series [7] was 400 µg/mL. Besides, the “concentration that completely inhibited proliferation” value in the series with E. coli was 930 micrograms/L of air; in the series on P. syringae pathovars it was 570 ug/L of air. Also, the “body weight and intake (in words)” value in [8] (4000 ppm in diet, 13 wk) was “reduction in body weight and intake, but it was not significant”. Besides, the “hematological parameters or organ weights (in words)” value in [8] (dietary levels 260, 640, 1600 or 4000 ppm for 13 wk) is “did not induce any changes in hematological parameters or organ weights”. Also, the “% Reduction at 13 Days” value in the series on Salmonella typhimurium [4] (0.10 kg/ton hexenal) is recorded as 0%; with Salmonella typhimurium [4] (0.25 kg/ton hexenal) it was 0%; in the series on Salmonella typhimurium [4] (0.50 kg/ton hexenal) it was 77.4%; in the series with Salmonella typhimurium [4] (1.00 kg/ton hexenal), 87.1%. Besides, the “toxic levels in rats relative to normal intake by humans” value in series [9] is 30 times. In addition, the “fruit quality (in words)” value in the series on pears and apples is recorded as “did not affect fruit appearance, color, firmness, soluble solids content or titratable acidity”. Also, the “concentration necessary to stabilize beverages” value in the series on yeast (10^5 CFU/bottle) (beverages not thermally treated) is 35 ppm. Besides, the “concentration controlling yeast in beverages” value with yeast (10^5 CFU/bottle) (with thermal treatment (56° C. for 20 min)) is 25 ppm. In addition, the “phytotoxicity (in words)” value is “not phytotoxic” in [10] (apricots); “phytotoxic” in [10] (peaches and nectarines at 40 μL/L). In the series with mold, the “control of mold (in words)” value is “showed promise for control of mold”. Besides, the “concentration effective on controlling” value with Penicillium expansum is listed as 12.5 μL/L. For the same compound, in the series with Phoma mycelium, the “concentration effective at inhibiting growth” value was 250 µg/mL. In addition, in series [11], the effective concentration is on record as 247 mg/L.

`C=CCCCCCCCCC=O` [undecylenic aldehyde]: the “ability” value with Salmonella typhimurium [2] is on record as “can replace trans-2-hexenal”.

As to `CCCCCC=CC=CC=O` [decadienal aldehyde, 2-4-decadienal], the “ability” value with Salmonella typhimurium [2] is “can replace trans-2-hexenal”.

In the case of `O=CC=Cc1ccccc1` [cinnamaldehyde], the “ability” value in the series on Salmonella typhimurium [2] is “can replace trans-2-hexenal”.

In the case of `CC/C=C/CC=O` [(3E)-hexenal], the “level effective in controlling” value in series [12] is 3 to 30 µg/mL.
